Measurements taken from patent US6218163A, “Stable biocatalysts for ester hydrolysis” (Thermogen, Inc., priority 1996, dated 2001).
Values belong to the compound of their own block, whether it stands above or below them.

Tests used:
Type in all cases: biochemical
[1] = test system: Thermus sp. T351 esterase E100; test: Kinetic analysis of E100: concentration-dependent initial rates of nitrophenyl proprionate hydrolysis; settings: p-NP as substrate, pH 8.5, 50 mM Tris-HCl, 37° C.
Procedure: FIG. 6. Kinetic analysis of E100.
Determination of Kinetic Characteristics--Kinetic characteristics are determined by measuring the concentration dependent initial rates of enzyme catalyzed hydrolysis of nitrophenyl proprionate. Reactions are run at pH 8.5 in 50 mM Tris-HCl buffer equilibrated to 37° C. and initiated by addition of enzyme. Rates are determined from the absorbance changes due to formation of product nitrophenol at 405 nm. Rates are corrected for the spontaneous hydrolysis of substrate during the course of the reaction. Concentration vs. rate data are analyzed by both double reciprocal plots and by HanesWolff plots to determine Km, Vmax and Vmax/Km.

[2] = test system: Thermus sp. T351 esterase E100; test: Inhibition by reaction components on the hydrolysis of p-nitrophenylproprionate by E100
Procedure: Measurement of E100 Enzyme Activity--Esterase activity is measured by monitoring the hydrolysis of p-nitrophenylproprionate (pNP), or in some cases MUB. Each substrate is dissolved in acetonitrile and added to the reaction mixture (100 μM final concentration) which contain 50 mM Tris HCl pH 8.5 adjusted for temperature dependent pH variation. Reactions are thermally equilibrated at 37° C. for 5 minutes prior to initiation of the reaction by addition of 10 μL of enzyme sample, while control reactions substituted equivalent amounts of BSA. The reaction is monitored spectrophotometrically at 405 nm ε=17 mM^-1 cm^-1 for pNP and 360 nm ε=7.9 mM^-1 cm^-1 for MUB.
The rates of enzyme catalyzed hydrolysis are corrected for the spontaneous hydrolysis of the substrate. Protein concentrations are determined by either the absorbance at 280 nm or by Lowery assay. Crude activity is determined by a colorimetric assay based on the hydrolysis of 5-bromo-4-chloro-3-indoyl esters suspended in a 0.7% agar matrix on microtiter plates. A 0.1 mg/ml solution of the indolyl derivative is dissolved in a minimal volume of acetonitrile and added to a warm solution of 0.7% agar containing 0.1M phosphate buffer pH 7.5. 10 μL of this solution is distributed to microtiter plates which, when cooled, could be used with as much as 100 μL of enzyme sample and incubated at temperatures from ambient to >65° C.

[3] = test system: Thermus sp. T351 esterase E101

Vmax [1]: 1.8×10^-5 Mmin^-1
Km ([1]; Lineweaver-Burke and Eadie-Hofstee analysis): 72 µM
SMILES: CCC(=O)Oc1ccc([N+](=O)[O-])cc1 [p-NP, p-nitrophenylproprionate]

Relative Rate ([2]; additive 10 mM, None = 100, substrate p-nitrophenylproprionate): 99%
SMILES: OCCS [BME, β-mercaptoethanol]

SMILES: O=C(O)CN(CCN(CC(=O)O)CC(=O)O)CC(=O)O [EDTA]
Relative Rate ([2]; pH 8.5, 1000 µM): 96

SMILES: O=S(=O)(F)Cc1ccccc1 [PMSF]
Inhibition of E101 (in words) [3]: inhibited
Relative Rate ([2]; additive 0.1 mM, None = 100, substrate p-nitrophenylproprionate): 0%

SMILES: Cc1ccc(S(=O)(=O)F)cc1 [tosyl fluoride]
Inhibition of E100 (in words) [2]: effectively inhibited
